Each block holds one molecule with its values, some of them ahead of it.
Assays:
[1] = system: ulcerative colitis induced by dextran sodium sulfate (DSS); details: cited from earlier work
[2] = system: aryl hydrocarbon receptor (AhR); experiment: SEAP reporter assay in HeXS34 cells (pXRE-SEAP) for AhR-activating potency; assay type: cell-based, mouse; details: 10 μM αNF preincubated 30 minutes, then 10% v/v OLL1181 for 24 hours
Procedure: The HeXS34 cells prepared in (1) maintained in MEMα medium (Invitrogen, Carlsbad, Calif.) supplemented with 10% fetal bovine serum (FBS) were sown on a 96 well plate at 5000 cells/90 μL per well, and cultured for 24 hours in the presence of and in the absence of 10 μL (5×10^9 cells/mL) of a freeze-dried heat-sterilized lactic acid bacterium strain. […] Culture supernatants were subsequently subjected to an SEAP assay. The culture supernatant obtained in (2) was subjected to quantitative determination of SEAP by a chemiluminescence method using a Great EscAPe SEAP Chemiluminescence kit (Clontech). The assay was carried out three times, and the average value was determined using the luminescence intensity (LU) so obtained as the SEAP activity. […] In the same way as for Example 1, stimulation was carried out for 24 hours using heat-sterilized suspensions of the two types of lactic acid bacterium strains (5×10^9 cells/mL solution was added at 5% v/v and 10% v/v), and the culture supernatant was subjected to SEAP assay. […] (3).

[3] = system: CYP1A1 expression in Caco2 cells; experiment: CYP1A1 expression in Caco2 cells by quantitative real-time PCR; assay type: cell-based, human; details: 5 μM αNF preincubated 30 minutes
Procedure: Human Caco2 cells were cultured in DMEM medium (Invitrogen/Gibco, Carlsbad, Calif.) supplemented with 10% FBS and an antibiotic, a portion was preincubated with 5 μM αNF for 30 minutes, and both that which had been preincubated and that which had not been preincubated were subjected to stimulation with a 10% v/v heat-sterilized OLL1181 strain suspension for 4 hours.
The Caco2 cells obtained in (1) were subjected to quantitative real-time PCR. The quantitative real-time PCR was carried out using an ABI 7300 real-time PCR system (Applied Biosystems, Foster City, Calif.) in accordance with an instruction manual. With regard to a primer and a probe, those for human CYP1A1 (Assay ID: Hs02382618_s1) and those for glyceraldehyde-3-phosphate dehydrogenase (GAPDH) (Assay ID: Hs99999905_m1) (Applied Biosystems) were used. The level of CYP1A1 gene expression relative to the level of GAPDH gene expression was calculated and defined as the relative level of CYP1A1 gene expression.

[4] = system: PGE2 secretion by Caco2 cells; experiment: Prostaglandin E2 (PGE2) ELISA of Caco2 culture supernatant; assay type: cell-based; details: human Caco2 cells, αNF preincubation
[5] = DSS-treated mouse, compared with no TCDD

Compound: Clc1cc2c(cc1Cl)Oc1cc(Cl)c(Cl)cc1O2 [TCDD, 2,3,7,8-tetrachlorodibenzo-p-dioxin]
Inflammation score [1, 5]: significantly suppressed
Production of inflammatory cytokines [1, 5]: significantly suppressed
Shortening of the intestinal tract [1, 5]: significantly suppressed
Weight loss [1, 5]: significantly suppressed
Inflammatory response of ulcerative colitis induced by DSS ([1]; mouse, in vivo): suppresses

Effect on the OLL1181-induced increase of CYP1A1 expression [3]: significantly suppressed
Compound: O=c1cc(-c2ccccc2)oc2c1ccc1ccccc12 [αNF, α-naphthoflavone]
Effect on the increase in SEAP activity caused by stimulation with the OLL1181 strain [2]: significantly inhibited
Effect on PGE2 production by stimulation with the OLL1181 strain [4]: inhibited

Source: US9095604B2, “Composition for preventing inflammations” (Meiji Co, Ltd., priority 2010, dated 2015)
